According to ChEMBL document CHEMBL1201862, “PubChem BioAssay data set” (2004):
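Compound exposure: 48 hours, 5 concentrations, 96-well plates. Abbreviation: GI50, concentration required for 50% inhibition of growth.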 Calls of active or inactive are those of the source. No stated cut-off is given here; in the data, active = GI50 up to about 1.1 µM and inactive = higher.

What was measured:
Assay in all cases: NCI-60 cell line screen, 48 h
XF498 = tested on: XF498
HOP-18 = tested on: HOP-18
RXF 631 = tested on: RXF 631
DMS-114 = tested on: DMS-114
SNB-78 = tested on: SNB-78
LXFL 529 = tested on: LXFL 529
KM-20L2 = tested on: KM-20L2
DMS-273 = tested on: DMS-273
DLD-1 = tested on: DLD-1

Measured: GI50

CS(=O)(=O)c1ccc(-c2cc(-c3ccc(S(C)(=O)=O)cc3)[n+](-c3cc(-c4ccccc4)c([O-])c(-c4ccccc4)c3)c(-c3ccc(S(C)(=O)=O)cc3)c2)cc1
inactive: XF498 > 100 µM | HOP-18 > 100 µM | RXF 631 > 100 µM | DMS-114 > 100 µM | SNB-78 > 100 µM | LXFL 529 > 100 µM | KM-20L2 > 100 µM | DMS-273 > 100 µM

C=CC1=C(C)/C(=C/C2=NC(=C\c3[nH]c(CC4NC(=O)C(C)/C4=C\C)c(C)c3CCC(=O)O)/C(CC(=O)O)=C2C)NC1=O (configuration not stated)
inactive: XF498 > 100 µM | HOP-18 > 100 µM | RXF 631 > 100 µM | DMS-114 > 100 µM | SNB-78 > 100 µM | LXFL 529 > 100 µM | KM-20L2 > 100 µM | DLD-1 > 100 µM

CN1C2(c3ccccc3)c3c(-c4ccccc4)sc(-c4ccccc4)c3C1(c1ccccc1)C1C(=O)N(c3ccccc3)C(=O)C12 (configuration not stated)
inactive: XF498 > 100 µM | HOP-18 > 100 µM | RXF 631 > 100 µM | DMS-114 > 100 µM | SNB-78 > 100 µM | LXFL 529 > 100 µM | KM-20L2 > 100 µM | DLD-1 > 100 µM | DMS-273 > 100 µM

O=c1c(NO)c([N+](=O)[O-])cnn1-c1ccccc1
inactive: XF498 3.41 µM | HOP-18 22.1 µM | RXF 631 2.48 µM | DMS-114 15.8 µM | SNB-78 16.9 µM | LXFL 529 1.76 µM | KM-20L2 7.19 µM | DLD-1 3.6 µM | DMS-273 3.26 µM

COc1ccc(OCC(=O)O)c2c1CCC(C)C2=O (configuration not stated)
inactive: XF498 > 100 µM | HOP-18 94.6 µM | RXF 631 > 100 µM | DMS-114 > 100 µM | SNB-78 > 100 µM | KM-20L2 > 100 µM | DLD-1 > 100 µM | DMS-273 > 100 µM

O=c1ccccc2cccc(O)c12
inactive: XF498 > 100 µM | HOP-18 > 100 µM | RXF 631 > 100 µM | DMS-114 > 100 µM | SNB-78 > 100 µM | LXFL 529 > 100 µM | KM-20L2 > 100 µM | DLD-1 > 100 µM | DMS-273 > 100 µM

COc1cc([C@H]2c3cc4c(cc3O[C@@]3(O)COC(=O)[C@@H]23)OCO4)cc(OC)c1OC
inactive: XF498 > 100 µM | HOP-18 > 100 µM | RXF 631 > 100 µM | DMS-114 > 100 µM | SNB-78 > 100 µM | KM-20L2 > 100 µM | DLD-1 > 100 µM | DMS-273 > 100 µM

O=c1ccn([C@H]2CSC[C@@H](CO)C2)c(=O)[nH]1
inactive: HOP-18 > 100 µM | RXF 631 > 100 µM | DMS-114 > 100 µM | SNB-78 > 100 µM | LXFL 529 > 100 µM | KM-20L2 > 100 µM | DLD-1 > 100 µM | DMS-273 > 100 µM
